Results from patent US6358885B1, “Substituted phenylheterocyclic herbicides” (Mississippi State University, priority 1992, dated 2002).

Experiments:
[1] = system: wild oat; experiment: Test C preemergence/postemergence greenhouse plant response rating 0 to 100; format: in vivo, Avena fatua; settings: POSTEMERGENCE
How it was run: (§1)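 Compounds in non-phytotoxic solvent applied preemergence to sandy loam one day after planting, postemergence at the 1–4 leaf stage, or to ~2.5 cm floodwater over silt loam.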

[2] = system: sorghum; experiment: Test B preemergence/postemergence greenhouse plant response rating 0 to 10; format: in vivo, Sorghum bicolor; settings: 0 to 10 scale
How it was run: (§2)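 Test chemicals were sprayed onto freshly planted seed and, concurrently, onto young plants between the one and four leaf stage. After a twelve- to sixteen-day greenhouse period, each species was visually compared with untreated controls.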

[3] = system: barnyardgrass; experiment: Test C flood test plant response rating 0 to 100; format: in vivo, Echinochloa crus-galli
How it was run: as §1

[4] = system: barley; experiment: Test B preemergence/postemergence greenhouse plant response rating 0 to 10; format: in vivo, Hordeum vulgare; settings: for Plant response rating, Barley: 0 to 10 scale
How it was run: as §2

[5] = system: wheat; experiment: as above; format: in vivo, Triticum aestivum; settings: 0 to 10 scale
How it was run: as §2

[6] = system: cotton; experiment: as above; format: in vivo, Gossypium hirsutum; settings: for Plant response rating, Cotton: 0 to 10 scale
How it was run: as §2

[7] = system: sugar beet; experiment: as above; format: in vivo, Beta vulgaris; settings: 0 to 10 scale
How it was run: as §2

[8] = system: bedstraw; experiment: as above; format: in vivo, Galium aparine; settings: POSTEMERGENCE
How it was run: as §2

[9] = system: sorghum; experiment: Test C preemergence/postemergence greenhouse plant response rating 0 to 100; format: in vivo, Sorghum bicolor; settings: POSTEMERGENCE
How it was run: as §1

[10] = system: lambsquarters; experiment: Test B preemergence/postemergence greenhouse plant response rating 0 to 10; format: in vivo, Chenopodium album; settings: 0 to 10 scale
How it was run: as §2

[11] = system: crabgrass; experiment: Test C preemergence/postemergence greenhouse plant response rating 0 to 100; format: in vivo, Digitaria sanguinalis; settings: POSTEMERGENCE
How it was run: as §1

[12] = system: wild buckwheat; experiment: as above; format: in vivo, Polygonum convolvulus; settings: POSTEMERGENCE
How it was run: as §1

[13] = system: downy brome; experiment: as above; format: in vivo, Bromus tectorum; settings: POSTEMERGENCE
How it was run: as §1

[14] = system: rape; experiment: as above; format: in vivo, Brassica napus; settings: POSTEMERGENCE
How it was run: as §1

[15] = system: wild oat; experiment: Test B preemergence/postemergence greenhouse plant response rating 0 to 10; format: in vivo, Avena fatua; settings: POSTEMERGENCE, 0 to 10 scale
How it was run: as §2

[16] = system: wheat; experiment: Test C preemergence/postemergence greenhouse plant response rating 0 to 100; format: in vivo, Triticum aestivum; settings: POSTEMERGENCE
How it was run: as §1

[17] = system: blackgrass; experiment: Test B preemergence/postemergence greenhouse plant response rating 0 to 10; format: in vivo, Alopecurus myosuroides; settings: for Plant response rating, Blackgrass: 0 to 10 scale
How it was run: as §2

[18] = system: ryegrass; experiment: Test C preemergence/postemergence greenhouse plant response rating 0 to 100; format: in vivo, Lolium multiflorum; settings: POSTEMERGENCE
How it was run: as §1

## CC(C)N1C(=O)COc2cc(F)c(-c3nn4c(c3Cl)CCCC4)cc21 [Compound 31]
[1]; 62 g/ha, 0 to 100 scale
  Plant response rating, Wild oat: 50
[1]; Rate 1 g/ha
  Plant response rating (0 to 100), Wild oat: 10
[1]; Rate 4 g/ha
  Plant response rating (0 to 100), Wild oat: 30
[1]; Rate 16 g/ha
  Plant response rating (0 to 100), Wild oat: 30
[2]; POSTEMERGENCE, Rate 10 g/ha
  Plant response rating, Sorghum: 5
[2]; POSTEMERGENCE, Rate 50 g/ha
  Plant response rating, Sorghum: 4
[2]; PREEMERGENCE, Rate 50 g/ha
  Plant response rating, Sorghum: 0
[3]; POSTEMERGENCE section, flood test, Rate 1 g/ha
  Plant response rating (0 to 100), Barnyardgrass: 20
[3]; Rate 4 g/ha, under POSTEMERGENCE head (flood test species)
  Plant response rating (0 to 100), Barnyardgrass: 65
[3]; Rate 16 g/ha, under POSTEMERGENCE head (flood test species)
  Plant response rating (0 to 100), Barnyardgrass: 90
[3]; flood test species listed under POSTEMERGENCE, 62 g/ha, 0 to 100 scale
  Plant response rating, Barnyardgrass: 100
[4]; POSTEMERGENCE, Rate 10 g/ha
  Plant response rating, Barley: 5
[4]; POSTEMERGENCE, Rate 50 g/ha
  Plant response rating (0 to 10 scale), Barley: 5
[4]; PREEMERGENCE, Rate 10 g/ha
  Plant response rating, Barley: 0
[4]; PREEMERGENCE, Rate 50 g/ha
  Plant response rating, Barley: 0
[5]; POSTEMERGENCE, Rate 10 g/ha
  Plant response rating, Wheat: 5
[5]; POSTEMERGENCE, Rate 50 g/ha
  Plant response rating, Wheat: 5
[5]; PREEMERGENCE, Rate 50 g/ha
  Plant response rating, Wheat: 1
[6]; POSTEMERGENCE, Rate 10 g/ha
  Plant response rating, Cotton: 10
[6]; POSTEMERGENCE, Rate 50 g/ha
  Plant response rating (0 to 10 scale), Cotton: 10
[6]; PREEMERGENCE, Rate 10 g/ha
  Plant response rating, Cotton: 0
[6]; PREEMERGENCE, Rate 50 g/ha
  Plant response rating, Cotton: 0
[7]; POSTEMERGENCE, Rate 10 g/ha
  Plant response rating, Sugar beet: 10
[7]; POSTEMERGENCE, Rate 50 g/ha
  Plant response rating, Sugar beet: 10
[7]; PREEMERGENCE, Rate 50 g/ha
  Plant response rating, Sugar beet: 10
[8]; Rate 10 g/ha, 0 to 10 scale
  Plant response rating, Bedstraw: 10
[8]; Rate 50 g/ha
  Plant response rating (0 to 10 scale), Bedstraw: 10
[9]; 62 g/ha, 0 to 100 scale
  Plant response rating, Sorghum: 50
[9]; Rate 1 g/ha
  Plant response rating (0 to 100), Sorghum: 20
[9]; Rate 4 g/ha
  Plant response rating (0 to 100), Sorghum: 40
[9]; Rate 16 g/ha
  Plant response rating (0 to 100), Sorghum: 50
[10]; POSTEMERGENCE, Rate 10 g/ha
  Plant response rating, Lambsquarter: 10
[10]; POSTEMERGENCE, Rate 50 g/ha
  Plant response rating, Lambsquarter: 10
[10]; PREEMERGENCE, Rate 50 g/ha
  Plant response rating, Lambsquarter: 10
[11]; 62 g/ha, 0 to 100 scale
  Plant response rating, Crabgrass: 50
[11]; Rate 1 g/ha
  Plant response rating (0 to 100), Crabgrass: 10
[11]; Rate 4 g/ha
  Plant response rating (0 to 100), Crabgrass: 20
[11]; Rate 16 g/ha
  Plant response rating (0 to 100), Crabgrass: 30
[12]; 62 g/ha, 0 to 100 scale
  Plant response rating, Wild buckwheat: 100
[12]; Rate 1 g/ha
  Plant response rating (0 to 100), Wild buckwheat: 70
[12]; Rate 4 g/ha
  Plant response rating (0 to 100), Wild buckwheat: 70
[12]; Rate 16 g/ha
  Plant response rating (0 to 100), Wild buckwheat: 100
[13]; 62 g/ha, 0 to 100 scale
  Plant response rating Downy Brome: 40
[13]; Rate 1 g/ha
  Plant response rating (0 to 100), Downy Brome: 10
[13]; Rate 4 g/ha
  Plant response rating (0 to 100), Downy Brome: 20
[13]; Rate 16 g/ha
  Plant response rating (0 to 100), Downy Brome: 40
[14]; 62 g/ha, 0 to 100 scale
  Plant response rating, Rape: 100
[14]; Rate 1 g/ha
  Plant response rating (0 to 100), Rape: 30
[14]; Rate 4 g/ha
  Plant response rating (0 to 100), Rape: 60
[14]; Rate 16 g/ha
  Plant response rating (0 to 100), Rape: 95
[15]; Rate 10 g/ha
  Plant response rating, Wild oat: 5
[15]; Rate 50 g/ha
  Plant response rating, Wild oat: 6
[16]; 62 g/ha, 0 to 100 scale
  Plant response rating, Wheat: 40
[16]; Rate 1 g/ha
  Plant response rating (0 to 100), Wheat: 10
[16]; Rate 4 g/ha
  Plant response rating (0 to 100), Wheat: 30
[16]; Rate 16 g/ha
  Plant response rating (0 to 100), Wheat: 30
[17]; POSTEMERGENCE, Rate 10 g/ha
  Plant response rating, Blackgrass: 4
[17]; POSTEMERGENCE, Rate 50 g/ha
  Plant response rating (0 to 10 scale), Blackgrass: 4
[17]; PREEMERGENCE, Rate 10 g/ha
  Plant response rating, Blackgrass: 3
[17]; PREEMERGENCE, Rate 50 g/ha
  Plant response rating, Blackgrass: 6
[18]; 62 g/ha, 0 to 100 scale
  Plant response rating Ryegrass: 40
[18]; Rate 1 g/ha
  Plant response rating (0 to 100), Ryegrass: 10
[18]; Rate 4 g/ha
  Plant response rating (0 to 100), Ryegrass: 20
[18]; Rate 16 g/ha
  Plant response rating (0 to 100), Ryegrass: 30
